Data as given in PMC8682760, “Specificity and sensitivity of an RNA targeting type III CRISPR complex coupled with a NucC endonuclease effector” (Nucleic Acids Research, 2021).
Several values for one entry are separate records, joined by “and”; a condition that tells them apart may be missing. Identical values can stand only once.

T1: NucC (Vibrio metoecus, UniProt P0DUD6)
T1 construct: Codon-optimised synthetic gene in pEV5HisTEV, N-terminal His8 tag (TEV step as for VmeCmr), E. coli C43(DE3); trimeric species used
T1 sequence (P0DUD6 1-245): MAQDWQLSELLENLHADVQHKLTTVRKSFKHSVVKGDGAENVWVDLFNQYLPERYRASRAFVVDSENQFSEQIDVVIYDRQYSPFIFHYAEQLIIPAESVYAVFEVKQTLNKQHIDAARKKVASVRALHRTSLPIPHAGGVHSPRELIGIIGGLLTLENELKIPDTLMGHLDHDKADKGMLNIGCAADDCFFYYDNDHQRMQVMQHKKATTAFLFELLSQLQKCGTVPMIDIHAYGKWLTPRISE


Assays:
NucC = molecular target: T1, NucC; assay: fluorogenic dsDNA (FAM/Iowa Black) cleavage, plate reader; assay type: biochemical; details: read-out: Act50
[1] = molecular target: the molecule itself; assay: SEC; HiLoad 16/60 Superdex pg 200, 20 mM Tris-HCl, 250 mM NaCl, 10% (v/v) glycerol, pH 7.5; peaks at approximately 160 ml and 180 ml

| Molecule | EC50 (NucC) [nM] | stoichiometry N [1] |
| --- | --- | --- |
| Nc1ncnc2c1ncn2[C@@H]1O[C@@H]2COP(=O)(O)O[C@H]3[C@@H](O)[C@H](n4cnc5c(N)ncnc54)O[C@@H]3COP(=O)(O)O[C@H]3[C@@H](O)[C@H](n4cnc5c(N)ncnc54)O[C@@H]3COP(=O)(O)O[C@H]2[C@H]1O [cA3] | 0.094 ± 0.004 |  |
| Vibrio metoecus NucC DNA endonuclease effector (enzyme, UniProt P0DUD6 1-245, looked up, NucC of the Vibrio metoecus type III-B CRISPR locus; source: E. coli C43(DE3), purified (HisTrap, TEV, second HisTrap, SEC on Superdex 200); not shown: His8, N-terminal, cleaved) MAQDWQLSELLENLHADVQHKLTTVRKSFKHSVVKGDGAENVWVDLFNQYLPERYRASRAFVVDSENQFSEQIDVVIYDRQYSPFIFHYAEQLIIPAESVYAVFEVKQTLNKQHIDAARKKVASVRALHRTSLPIPHAGGVHSPRELIGIIGGLLTLENELKIPDTLMGHLDHDKADKGMLNIGCAADDCFFYYDNDHQRMQVMQHKKATTAFLFELLSQLQKCGTVPMIDIHAYGKWLTPRISE |  | 6 and 3 |
